System: 317291-083-R-J1-PDC complex spheroid growth
Assay: Anticancer human tumor 317291-083-R-J1-PDC patient-derived soft tissue sarcoma cell line growth inhibition [Asc]
Conditions: for IC50: curve of first compound; for viability, T/C: stronger effect = lower value; active means viability on the fitted dose curve at most 10% of control; inactive means the rest
How it was run: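 Complex solid-tumor spheroids incorporating human endothelial and mesenchymal stem cells received single agents or combinations over half-log dilution ranges anchored to clinical Cmax.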

[1] = second compound 0.00949 µM, first compound 0.0316 µM
[2] = second compound 0.00949 µM, first compound 0.1 µM
[3] = second compound 0.00949 µM, first compound 0.316 µM
[4] = second compound 0.00949 µM, first compound 1 µM
[5] = second compound 0.00949 µM, first compound 3.16 µM
[6] = second compound 0.00949 µM, first compound 10 µM
[7] = second compound 0.03 µM, first compound 0.0316 µM
[8] = second compound 0.03 µM, first compound 0.1 µM
[9] = second compound 0.03 µM, first compound 0.316 µM
[10] = second compound 0.03 µM, first compound 1 µM
[11] = second compound 0.03 µM, first compound 3.16 µM
[12] = second compound 0.03 µM, first compound 10 µM
[13] = second compound 0.0949 µM, first compound 0.0316 µM
[14] = second compound 0.0949 µM, first compound 0.1 µM
[15] = second compound 0.0949 µM, first compound 0.316 µM
[16] = second compound 0.0949 µM, first compound 1 µM
[17] = second compound 0.0949 µM, first compound 3.16 µM
[18] = second compound 0.0949 µM, first compound 10 µM
[19] = second compound 0.3 µM, first compound 0.0316 µM
[20] = second compound 0.3 µM, first compound 0.1 µM
[21] = second compound 0.3 µM, first compound 0.316 µM
[22] = second compound 0.3 µM, first compound 1 µM
[23] = second compound 0.3 µM, first compound 3.16 µM
[24] = second compound 0.3 µM, first compound 10 µM
[25] = second compound 0.949 µM, first compound 0.0316 µM
[26] = second compound 0.949 µM, first compound 0.1 µM
[27] = second compound 0.949 µM, first compound 0.316 µM
[28] = second compound 0.949 µM, first compound 1 µM
[29] = second compound 0.949 µM, first compound 3.16 µM
[30] = second compound 0.949 µM, first compound 10 µM
[31] = second compound 3 µM, first compound 0.0316 µM
[32] = second compound 3 µM, first compound 0.1 µM
[33] = second compound 3 µM, first compound 0.316 µM
[34] = second compound 3 µM, first compound 1 µM
[35] = second compound 3 µM, first compound 3.16 µM
[36] = second compound 3 µM, first compound 10 µM
[37] = second compound 0.00949 µM, first compound 0.00316 µM
[38] = second compound 0.00949 µM, first compound 0.01 µM
[39] = second compound 0.03 µM, first compound 0.00316 µM
[40] = second compound 0.03 µM, first compound 0.01 µM
[41] = second compound 0.0949 µM, first compound 0.00316 µM
[42] = second compound 0.0949 µM, first compound 0.01 µM
[43] = second compound 0.3 µM, first compound 0.00316 µM
[44] = second compound 0.3 µM, first compound 0.01 µM
[45] = second compound 0.949 µM, first compound 0.00316 µM
[46] = second compound 0.949 µM, first compound 0.01 µM
[47] = second compound 3 µM, first compound 0.00316 µM
[48] = second compound 3 µM, first compound 0.01 µM
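Further: compound exposure lasted seven days after spheroids formed for three days.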
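Wherever viability, T/C is given: 100% = DMSO vehicle control wells.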

C=C(F)C(=O)N1CCN(c2nc(OCC3CCCN3C)nc3c2CCN(c2cccc4cccc(Cl)c24)C3)CC1CC#N (stereo not drawn) + CCN1C(C(=O)NC23CCC(C(=O)O)(CC2)CC3)C(c2cccc(Cl)c2F)C2(C(=O)Nc3cc(Cl)ccc32)C12CCCCC2
1980 nM: IC50 (second compound 0.3 µM)
2430 nM: IC50 (second compound 0.949 µM)
inactive: viability, T/C [1] 105% | viability, T/C [2] 101% | viability, T/C [3] 90.2% | viability, T/C [4] 93.2% | viability, T/C [5] 39.3% | viability, T/C [7] 92.7% | viability, T/C [8] 91.8% | viability, T/C [9] 99.3% | viability, T/C [10] 95.2% | viability, T/C [11] 45.1% | viability, T/C [13] 106% | viability, T/C [14] 89% | viability, T/C [15] 122% | viability, T/C [16] 98.7% | viability, T/C [17] 61.9% | viability, T/C [19] 106% | viability, T/C [20] 92.4% | viability, T/C [21] 92.7% | viability, T/C [22] 86.8% | viability, T/C [23] 24.8% | viability, T/C [25] 104% | viability, T/C [26] 93% | viability, T/C [27] 91.9% | viability, T/C [28] 98% | viability, T/C [29] 36.1% | viability, T/C [31] 78.2% | viability, T/C [32] 91.9% | viability, T/C [33] 85.5% | viability, T/C [34] 64.5% | viability, T/C [35] 41.4%
3940 nM: IC50 (second compound 0.0949 µM)
2830 nM: IC50 (second compound 0.03 µM)
2510 nM: IC50 (second compound 0.00949 µM)
active: viability, T/C [6] 0.31% | viability, T/C [12] 0.14% | viability, T/C [18] 0.14% | viability, T/C [24] 0.21% | viability, T/C [30] 0.19% | viability, T/C [36] 1.13%
2110 nM: IC50 (second compound 3 µM)

C=CC(=O)N1CCN(c2nc(=O)n(-c3c(C)ccnc3C(C)C)c3nc(-c4c(O)cccc4F)c(F)cc23)C(C)C1 (stereo not drawn) + CCN1C(C(=O)NC23CCC(C(=O)O)(CC2)CC3)C(c2cccc(Cl)c2F)C2(C(=O)Nc3cc(Cl)ccc32)C12CCCCC2
inactive: viability, T/C [1] 94.8% | viability, T/C [2] 79.8% | viability, T/C [3] 85.8% | viability, T/C [4] 92.5% | viability, T/C [5] 77.6% | viability, T/C [6] 71.8% | viability, T/C [7] 90.1% | viability, T/C [8] 80.2% | viability, T/C [9] 93.2% | viability, T/C [10] 89.3% | viability, T/C [11] 84.8% | viability, T/C [12] 71.2% | viability, T/C [13] 101% | viability, T/C [14] 93.3% | viability, T/C [15] 98.6% | viability, T/C [16] 94.7% | viability, T/C [17] 84% | viability, T/C [18] 71.4% | viability, T/C [19] 99.7% | viability, T/C [20] 81.2% | viability, T/C [21] 94.1% | viability, T/C [22] 93.3% | viability, T/C [23] 111% | viability, T/C [24] 69.2% | viability, T/C [25] 85.2% | viability, T/C [26] 84.7% | viability, T/C [27] 89.2% | viability, T/C [28] 77.7% | viability, T/C [29] 83.3% | viability, T/C [30] 67% | viability, T/C [31] 68.6% | viability, T/C [32] 72.6% | viability, T/C [33] 72.4% | viability, T/C [34] 98.5% | viability, T/C [35] 82.3% | viability, T/C [36] 46.3%
8770 nM: IC50 (second compound 3 µM)
> 10000 nM: IC50 (second compound 0.00949 µM) | IC50 (second compound 0.03 µM) | IC50 (second compound 0.0949 µM) | IC50 (second compound 0.3 µM) | IC50 (second compound 0.949 µM)

COc1c(OCCCN2CCOCC2)ccc2c3n(c(=NC(=O)c4cnc(N)nc4)nc12)CCN3 + CCN1C(C(=O)NC23CCC(C(=O)O)(CC2)CC3)C(c2cccc(Cl)c2F)C2(C(=O)Nc3cc(Cl)ccc32)C12CCCCC2
182 nM: IC50 (second compound 0.03 µM)
177 nM: IC50 (second compound 0.00949 µM)
213 nM: IC50 (second compound 0.0949 µM)
inactive: viability, T/C [37] 95.6% | viability, T/C [38] 85.8% | viability, T/C [1] 85% | viability, T/C [2] 64.9% | viability, T/C [3] 34.6% | viability, T/C [4] 16.3% | viability, T/C [39] 95.6% | viability, T/C [40] 79.2% | viability, T/C [7] 79.5% | viability, T/C [8] 56.2% | viability, T/C [9] 43.8% | viability, T/C [10] 13.9% | viability, T/C [41] 93.7% | viability, T/C [42] 83.4% | viability, T/C [13] 81.3% | viability, T/C [14] 79.4% | viability, T/C [15] 34.8% | viability, T/C [16] 16.9% | viability, T/C [43] 120% | viability, T/C [44] 76.9% | viability, T/C [19] 84.7% | viability, T/C [20] 67% | viability, T/C [21] 37.1% | viability, T/C [22] 17.4% | viability, T/C [45] 85.1% | viability, T/C [46] 74% | viability, T/C [25] 86.8% | viability, T/C [26] 58.5% | viability, T/C [27] 39.2% | viability, T/C [28] 15.4% | viability, T/C [47] 88.2% | viability, T/C [48] 71% | viability, T/C [31] 73.3% | viability, T/C [32] 55% | viability, T/C [33] 32.8% | viability, T/C [34] 15.2%
127 nM: IC50 (second compound 3 µM)
173 nM: IC50 (second compound 0.3 µM)
180 nM: IC50 (second compound 0.949 µM)

NC1CCC(NC2CC2c2ccccc2)CC1 (stereo not drawn) + CCN1C(C(=O)NC23CCC(C(=O)O)(CC2)CC3)C(c2cccc(Cl)c2F)C2(C(=O)Nc3cc(Cl)ccc32)C12CCCCC2
> 100 nM: IC50 (second compound 0.00949 µM) | IC50 (second compound 0.03 µM) | IC50 (second compound 0.0949 µM) | IC50 (second compound 0.3 µM) | IC50 (second compound 0.949 µM) | IC50 (second compound 3 µM)
inactive: viability, T/C (second compound 0.00949 µM, first compound 0.000316 µM) 92.4% | viability, T/C (second compound 0.00949 µM, first compound 0.001 µM) 103% | viability, T/C [37] 96.6% | viability, T/C [38] 97% | viability, T/C [1] 95.5% | viability, T/C [2] 94.2% | viability, T/C (second compound 0.03 µM, first compound 0.000316 µM) 109% | viability, T/C (second compound 0.03 µM, first compound 0.001 µM) 100% | viability, T/C [39] 106% | viability, T/C [40] 114% | viability, T/C [7] 107% | viability, T/C [8] 94.2% | viability, T/C (second compound 0.0949 µM, first compound 0.000316 µM) 103% | viability, T/C (second compound 0.0949 µM, first compound 0.001 µM) 81.3% | viability, T/C [41] 87.6% | viability, T/C [42] 95.7% | viability, T/C [13] 106% | viability, T/C [14] 108% | viability, T/C (second compound 0.3 µM, first compound 0.000316 µM) 116% | viability, T/C (second compound 0.3 µM, first compound 0.001 µM) 108% | viability, T/C [43] 98.9% | viability, T/C [44] 80.3% | viability, T/C [19] 102% | viability, T/C [20] 111% | viability, T/C (second compound 0.949 µM, first compound 0.000316 µM) 98.9% | viability, T/C (second compound 0.949 µM, first compound 0.001 µM) 120% | viability, T/C [45] 76.2% | viability, T/C [46] 93.8% | viability, T/C [25] 97.6% | viability, T/C [26] 106% | viability, T/C (second compound 3 µM, first compound 0.000316 µM) 99.7% | viability, T/C (second compound 3 µM, first compound 0.001 µM) 107% | viability, T/C [47] 81.5% | viability, T/C [48] 74.2% | viability, T/C [31] 83.6% | viability, T/C [32] 74.3%
